From PMC8632988, “Inhibition of SYK and cSrc kinases can protect bone and cartilage in preclinical models of osteoarthritis and rheumatoid arthritis” (Scientific Reports, 2021)
Several values for one entry are separate records, joined by “and”; a condition that tells them apart may be missing. Equal values may be shown once.

What was measured:
[1] = system: human osteoclasts; test: Osteoclast-mediated resorption of the mineralized matrix; type: cell-based; set-up: Ratio %: unit not given here; conditions: for Ratio %: vehicle average = 1.000
Method: The experiment was performed at Atlantic Bone Screen (France) and approved by Atlantic Bone Screen ethics committee. Human CD14 + monocytes were isolated from peripheral blood of healthy volunteers (informed consent was obtained from all subjects) using density gradient centrifugation (Ficoll-Hypaque) and magnetic cell sorting (MACS, MiltenyiBiotec). CD14 + monocytes (1.5 × 10^6 cells/well) were cultured for three days in proliferation medium (αMEM/FCS-10% supplemented with 25 ng/mL M-CSF), inducing proliferation and expression of RANK. Secondly, the cells were differentiated into osteoclasts in differentiation medium supplemented with 100 ng/mL RANKL for 4 days. Osteoclasts were detached from the wells using accutase, the cell suspension was homogenized and cells (75 μL/well) were reseeded into: (a) a 96-well plate coated with a synthetic mineralized matrix for an evaluation of osteoclast resorption, or (b) a classic 96-well plastic culture plate, for an assessment of osteoclast number. 75 μL of differentiation medium containing M-CSF and RANKL (at a 2 × concentration) was added to each well. The cells were incubated for an hour and were cultured for 48 h in the fresh differentiation medium supplemented with MT-SYK-03 or vehicle (DMSO, 0.3%). All treatments were carried out in quadruple. Then the cell medium was removed, cells were lysed and the surface of the resorbed areas of the mineralized matrix was quantified in each well. TRAP staining was performed for cells in a classic plastic plate and the number of mature osteoclasts (TRAP-positive cells with three or more nuclei) was determined in each well. Reconstruction of images and osteoclast count was performed using Nikon NIS-D software.

[2] = system: Wistar rats, MIA osteoarthritis model; test: Monosodium iodoacetate induced osteoarthritis in rats; type: in vivo, rat
Method: Monosodium iodoacetate (MIA) osteoarthritis model was performed at Pharmenterprises, Russia according to the known procedure[32] and approved by Ethics Committee of Pharmenterprises. Male 10 week old Wistar rats were divided into eight groups: negative control (#1), positive control (#2) and six treatment groups (#3–8), ten rats in each group. Group #1 was left intact while rats in groups #2–8 were anesthetized on the day 0 with intraperitoneal injection of Zoletil and Xylazine mixture and given a single intra-articular injection of MIA through the infrapatellar ligament of the right knee. Rats were treated as follows: (#1, #2) 0.5% solution of methylcellulose in PBS (pH = 3) as vehicle control, (#3, #5) 100 mg/kg MT-SYK-03, (#4, #6) 500 mg/kg MT-SYK-03, (#7) 50 mg/kg nalgesin and (#8) 0.1 mg/kg zoledronic acid. Rats in groups #1–4 received treatment intragastrically QD, 25 and 1 h before the MIA injection, and then daily until the end of the study on the day 28. Rats in groups #5–6 received treatment intragastrically QD from the day 7 until the end of the study. Rats in group #7 were treated QD starting on the day 14 and until the end of the study. Finally, rats in group #8 were treated subcutaneously immediately after the MIA injection and then every third day until the study end. Disease progression was monitored by measuring mechanical hyperalgesia, mechanical allodynia and grip strength of hind paws on the days 14, 21, and 28, just before the treatment, and 1, 3, 6 h after it.

[3] = MT-SYK-03 0.12 μM, individual wells
[4] = MT-SYK-03 0.37 μM, individual wells
[5] = MT-SYK-03 3.3 μM, individual wells
[6] = MT-SYK-03 10 μM, individual wells
[7] = MT-SYK-03 100 mg/kg, 7–28 days QD, 14 day, 1 hour after admin.
[8] = MT-SYK-03 100 mg/kg, 7–28 days QD, 14 day, 3 hours after admin.
[9] = MT-SYK-03 100 mg/kg, 7–28 days QD, 21 day, 1 hour after admin.
[10] = MT-SYK-03 100 mg/kg, 7–28 days QD, 21 day, 3 hours after admin.
[11] = MT-SYK-03 100 mg/kg, 7–28 days QD, 28 day, 1 hour after admin.
[12] = MT-SYK-03 100 mg/kg, 7–28 days QD, 28 day, 3 hours after admin.
[13] = MT-SYK-03 100 mg/kg, −1–28 days QD, 14 day, 1 hour after admin.
[14] = MT-SYK-03 100 mg/kg, −1–28 days QD, 14 day, 3 hours after admin.
[15] = MT-SYK-03 100 mg/kg, −1–28 days QD, 21 day, 1 hour after admin.
[16] = MT-SYK-03 100 mg/kg, −1–28 days QD, 21 day, 3 hours after admin.
[17] = MT-SYK-03 100 mg/kg, −1–28 days QD, 28 day, 1 hour after admin.
[18] = MT-SYK-03 100 mg/kg, −1–28 days QD, 28 day, 3 hours after admin.
[19] = MT-SYK-03 500 mg/kg, 7–28 days QD, 14 day, 1 hour after admin.
[20] = MT-SYK-03 500 mg/kg, 7–28 days QD, 14 day, 3 hours after admin.
[21] = MT-SYK-03 500 mg/kg, 7–28 days QD, 21 day, 1 hour after admin.
[22] = MT-SYK-03 500 mg/kg, 7–28 days QD, 21 day, 3 hours after admin.
[23] = MT-SYK-03 500 mg/kg, 7–28 days QD, 28 day, 1 hour after admin.
[24] = MT-SYK-03 500 mg/kg, 7–28 days QD, 28 day, 3 hours after admin.
[25] = MT-SYK-03 500 mg/kg, −1–28 days QD, 14 day, 1 hour after admin.
[26] = MT-SYK-03 500 mg/kg, −1–28 days QD, 14 day, 3 hours after admin.
[27] = MT-SYK-03 500 mg/kg, −1–28 days QD, 21 day, 1 hour after admin.
[28] = MT-SYK-03 500 mg/kg, −1–28 days QD, 21 day, 3 hours after admin.
[29] = MT-SYK-03 500 mg/kg, −1–28 days QD, 28 day, 1 hour after admin.
[30] = MT-SYK-03 500 mg/kg, −1–28 days QD, 28 day, 3 hours after admin.

COc1cc(Nc2ncnc(Nc3cc4c(cn3)NC(=O)C(C)(C)O4)n2)cc(OC)c1OC [MT-SYK-03]
Relative resorbed surface ([1]; 10 μM, 48 h, versus vehicle control): more than threefold
Ratio resorption/Nb OC ([1]; MT-SYK-03 0.12 μM, Average): 0.079
Resorption, % resorption ([1]; MT-SYK-03 0.12 μM, Average): 31.78%
TRAP, Number of osteoclasts (Nb OC) ([1]; MT-SYK-03 0.12 μM, Average): 405
Ratio % ([1]; MT-SYK-03 0.12 μM, Average): 1.001
Ratio resorption/Nb OC [1, 3]: 0.088 and 0.075 and 0.085 and 0.067
Resorption, % resorption [1, 3]: 34.41% and 30.62% and 34.06% and 28.02%
TRAP, Number of osteoclasts (Nb OC) [1, 3]: 389 and 408 and 402 and 419
Ratio resorption/Nb OC ([1]; MT-SYK-03 0.37 μM, Average): 0.062
Resorption, % resorption ([1]; MT-SYK-03 0.37 μM, Average): 26.43%
TRAP, Number of osteoclasts (Nb OC) ([1]; MT-SYK-03 0.37 μM, Average): 422
Ratio % ([1]; MT-SYK-03 0.37 μM, Average): 0.789
Ratio resorption/Nb OC [1, 4]: 0.084 and 0.065 and 0.069 and 0.031
Resorption, % resorption [1, 4]: 33.11% and 27.51% and 32.94% and 12.15%
TRAP, Number of osteoclasts (Nb OC) [1, 4]: 394 and 426 and 478 and 391
Ratio resorption/Nb OC ([1]; MT-SYK-03 3.3 μM, Average): 0.015
Resorption, % resorption ([1]; MT-SYK-03 3.3 μM, Average): 2.81%
TRAP, Number of osteoclasts (Nb OC) ([1]; MT-SYK-03 3.3 μM, Average): 196
Ratio % ([1]; MT-SYK-03 3.3 μM, Average): 0.197
Ratio resorption/Nb OC [1, 5]: 0.014 and 0.025 and 0.011 and 0.012
Resorption, % resorption [1, 5]: 2.31% and 3.40% and 2.62% and 2.91%
TRAP, Number of osteoclasts (Nb OC) [1, 5]: 165 and 136 and 247 and 235
Ratio resorption/Nb OC ([1]; MT-SYK-03 10 μM, Average): 0.004
Resorption, % resorption ([1]; MT-SYK-03 10 μM, Average): 1.53%
TRAP, Number of osteoclasts (Nb OC) ([1]; MT-SYK-03 10 μM, Average): 8
Ratio % ([1]; MT-SYK-03 10 μM, Average): 0.044
Ratio resorption/Nb OC [1, 6]: 0.016 and 0.024 and 0.023 and 0.028
Resorption, % resorption [1, 6]: 5.87% and 9.73% and 8.76% and 11.00% and 8.84%
TRAP, Number of osteoclasts (Nb OC) [1, 6]: 371 and 402 and 388 and 390
hind paws grip strength [2, 7]: 70.1 ± 10.8 % from the initial one
mechanical allodynia pain threshold [2, 7]: 70.2±7.7 % from the initial one
mechanical hyperalgesia [2, 7]: 51.9 ± 4.1 & % from the initial one
hind paws grip strength [2, 8]: 58.9 ± 7.8 & % from the initial one
mechanical allodynia pain threshold [2, 8]: 78.7±10.6 % from the initial one
mechanical hyperalgesia [2, 8]: 50.6 ± 5.6 & % from the initial one
hind paws grip strength [2, 9]: 76.3 ± 6.2 & % from the initial one
mechanical allodynia pain threshold [2, 9]: 75.3±15.4 % from the initial one
mechanical hyperalgesia [2, 9]: 85.1 ± 5 % from the initial one
hind paws grip strength [2, 10]: 62.56 ± 7.58 % from the initial one
mechanical allodynia pain threshold [2, 10]: 73.1±7.9 % from the initial one
mechanical hyperalgesia [2, 10]: 73.5 ± 6.9 & % from the initial one
hind paws grip strength [2, 11]: 74.4 ± 13.0 % from the initial one
mechanical allodynia pain threshold [2, 11]: 61.7±5.8 % from the initial one
mechanical hyperalgesia [2, 11]: 67.7 ± 9.8 & % from the initial one
hind paws grip strength [2, 12]: 58.1 ± 10.0 % from the initial one
mechanical allodynia pain threshold [2, 12]: 78.3±8 % from the initial one
mechanical hyperalgesia [2, 12]: 71.24 ± 7.99 % from the initial one
hind paws grip strength [2, 13]: 56.3 ± 5.2 & % from the initial one
mechanical allodynia pain threshold [2, 13]: 136.3±22.5 & % from the initial one
mechanical hyperalgesia [2, 13]: 73.5 ± 10.5 & % from the initial one
hind paws grip strength [2, 14]: 58.7 ± 8.2 & % from the initial one
mechanical allodynia pain threshold [2, 14]: 136.7±29.2 & % from the initial one
mechanical hyperalgesia [2, 14]: 63.9 ± 7.5 & % from the initial one
hind paws grip strength [2, 15]: 76.5 ± 4.5 & % from the initial one
mechanical allodynia pain threshold [2, 15]: 107.7±12.8 & % from the initial one
mechanical hyperalgesia [2, 15]: 74.4 ± 3.3 &# % from the initial one
hind paws grip strength [2, 16]: 72.69 ± 9.18 % from the initial one
mechanical allodynia pain threshold [2, 16]: 95.5±4.7 & % from the initial one
mechanical hyperalgesia [2, 16]: 80.5 ± 10.3 % from the initial one
hind paws grip strength [2, 17]: 90.5 ± 14.0 % from the initial one
mechanical allodynia pain threshold [2, 17]: 135.8±27.6 & % from the initial one
mechanical hyperalgesia [2, 17]: 65.1 ± 7.4 & % from the initial one
hind paws grip strength [2, 18]: 88.6 ± 18.5 % from the initial one
mechanical allodynia pain threshold [2, 18]: 110.3±16.3 % from the initial one
mechanical hyperalgesia [2, 18]: 67.38 ± 9.74 & % from the initial one
hind paws grip strength [2, 19]: 68.2 ± 11.3 % from the initial one
mechanical allodynia pain threshold [2, 19]: 75.7±3.6 % from the initial one
mechanical hyperalgesia [2, 19]: 51.1 ± 5.4 & % from the initial one
hind paws grip strength [2, 20]: 78.6 ± 12.1 % from the initial one
mechanical allodynia pain threshold [2, 20]: 82.7±12.8 % from the initial one
mechanical hyperalgesia [2, 20]: 77.5 ± 6.9 & % from the initial one
hind paws grip strength [2, 21]: 67.7 ± 7.9 & % from the initial one
mechanical allodynia pain threshold [2, 21]: 74.5±13.9 % from the initial one
mechanical hyperalgesia [2, 21]: 56 ± 7.2 & % from the initial one
hind paws grip strength [2, 22]: 68.23 ± 6.84 % from the initial one
mechanical allodynia pain threshold [2, 22]: 78.9±6.8 % from the initial one
mechanical hyperalgesia [2, 22]: 58.5 ± 7.1 & % from the initial one
hind paws grip strength [2, 23]: 82.8 ± 9.5 % from the initial one
mechanical allodynia pain threshold [2, 23]: 198.4±40.1 & % from the initial one
mechanical hyperalgesia [2, 23]: 75 ± 6.1 & % from the initial one
hind paws grip strength [2, 24]: 79.8 ± 4.3 % from the initial one
mechanical allodynia pain threshold [2, 24]: 161.1±30.5 & % from the initial one
mechanical hyperalgesia [2, 24]: 78.02 ± 9.37 % from the initial one
hind paws grip strength [2, 25]: 62.8 ± 9.9 % from the initial one
mechanical allodynia pain threshold [2, 25]: 113.9±9.7 & % from the initial one
mechanical hyperalgesia [2, 25]: 53.8 ± 4.4 & % from the initial one
hind paws grip strength [2, 26]: 70.3 ± 7.0 & % from the initial one
mechanical allodynia pain threshold [2, 26]: 111.1±17.7 & % from the initial one
mechanical hyperalgesia [2, 26]: 52.5 ± 3.3 & % from the initial one
hind paws grip strength [2, 27]: 89.6 ± 8.7 % from the initial one
mechanical allodynia pain threshold [2, 27]: 105.8±13 & % from the initial one
mechanical hyperalgesia [2, 27]: 75.4 ± 6.4 % from the initial one
hind paws grip strength [2, 28]: 76.56 ± 4.83 % from the initial one
mechanical allodynia pain threshold [2, 28]: 98.1±5.7 & % from the initial one
mechanical hyperalgesia [2, 28]: 64.7 ± 4.3 & % from the initial one
hind paws grip strength [2, 29]: 86.3 ± 8.3 % from the initial one
mechanical allodynia pain threshold [2, 29]: 106.7±12 & % from the initial one
mechanical hyperalgesia [2, 29]: 53.5 ± 3.8 & % from the initial one
hind paws grip strength [2, 30]: 82.3 ± 12.7 % from the initial one
mechanical allodynia pain threshold [2, 30]: 99.2±5.5 & % from the initial one
mechanical hyperalgesia [2, 30]: 61.04 ± 1.81 & % from the initial one
hind paws grip strength ([2]; rat MIA, days 14, 21, 28): trend toward restoration of hind paws grip strength
Mechanical hyperalgesia pain threshold ([2]; rat MIA, prophylactic administration, 100 and 500 mg/kg): statistically significant increase of pain thresholds for both doses from day 14
mechanical allodynia pain threshold ([2]; rat MIA, prophylactic treatment regimen): on day 14 pain threshold was elevated in all measurements
Mechanical hyperalgesia pain threshold ([2]; rat MIA, therapeutic treatment regimen): statistically significant improvement appeared only on day 28 for higher dose
mechanical allodynia pain threshold ([2]; rat MIA, treatment regimen): statistically significant on day 28 and only in the higher dose
